Values quoted from earlier work in EP2243483A1, “Amlodipine salt compositions for topical application” (priority 2009, dated 2010).
Where a name gives a salt, the structure may show the parent alone.

Tests used:
2B6 = target: T1, 2B6 (Homo sapiens, UniProt P20813)
T1 sequence (P20813 1-491): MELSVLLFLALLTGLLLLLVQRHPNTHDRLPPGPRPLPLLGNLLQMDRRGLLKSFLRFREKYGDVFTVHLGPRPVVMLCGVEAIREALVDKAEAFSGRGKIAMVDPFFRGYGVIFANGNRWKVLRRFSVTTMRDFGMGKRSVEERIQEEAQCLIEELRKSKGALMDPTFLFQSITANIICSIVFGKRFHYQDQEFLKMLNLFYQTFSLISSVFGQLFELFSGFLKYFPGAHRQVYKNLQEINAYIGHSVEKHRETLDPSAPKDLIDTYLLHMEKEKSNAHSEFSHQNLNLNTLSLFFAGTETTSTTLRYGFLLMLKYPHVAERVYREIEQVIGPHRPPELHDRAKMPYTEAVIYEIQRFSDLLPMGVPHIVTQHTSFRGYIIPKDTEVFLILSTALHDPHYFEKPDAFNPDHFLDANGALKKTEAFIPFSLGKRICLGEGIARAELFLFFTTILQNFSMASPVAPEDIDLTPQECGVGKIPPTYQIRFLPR

2D6 = 2D6 (Homo sapiens, UniProt P10635)
CYP 1A2 isoenzyme = target: T2, CYP 1A2 isoenzyme (Homo sapiens, UniProt P05177)
T2 sequence (P05177 1-516): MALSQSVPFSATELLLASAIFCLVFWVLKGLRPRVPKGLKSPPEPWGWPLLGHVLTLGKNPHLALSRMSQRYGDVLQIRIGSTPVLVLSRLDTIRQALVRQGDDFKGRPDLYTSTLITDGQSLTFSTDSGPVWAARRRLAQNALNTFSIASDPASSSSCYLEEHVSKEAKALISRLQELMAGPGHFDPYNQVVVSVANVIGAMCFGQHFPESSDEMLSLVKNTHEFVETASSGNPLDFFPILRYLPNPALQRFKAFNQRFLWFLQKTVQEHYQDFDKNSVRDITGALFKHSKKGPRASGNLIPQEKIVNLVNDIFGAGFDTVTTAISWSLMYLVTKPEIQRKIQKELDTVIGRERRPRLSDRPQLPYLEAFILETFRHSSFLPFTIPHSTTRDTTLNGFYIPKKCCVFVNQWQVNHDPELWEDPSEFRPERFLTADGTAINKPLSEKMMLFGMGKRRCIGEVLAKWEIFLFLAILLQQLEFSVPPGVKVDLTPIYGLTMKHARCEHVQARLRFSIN

2A6 = target: T3, 2A6 (Homo sapiens, UniProt P11509)
T3 sequence (P11509 1-494): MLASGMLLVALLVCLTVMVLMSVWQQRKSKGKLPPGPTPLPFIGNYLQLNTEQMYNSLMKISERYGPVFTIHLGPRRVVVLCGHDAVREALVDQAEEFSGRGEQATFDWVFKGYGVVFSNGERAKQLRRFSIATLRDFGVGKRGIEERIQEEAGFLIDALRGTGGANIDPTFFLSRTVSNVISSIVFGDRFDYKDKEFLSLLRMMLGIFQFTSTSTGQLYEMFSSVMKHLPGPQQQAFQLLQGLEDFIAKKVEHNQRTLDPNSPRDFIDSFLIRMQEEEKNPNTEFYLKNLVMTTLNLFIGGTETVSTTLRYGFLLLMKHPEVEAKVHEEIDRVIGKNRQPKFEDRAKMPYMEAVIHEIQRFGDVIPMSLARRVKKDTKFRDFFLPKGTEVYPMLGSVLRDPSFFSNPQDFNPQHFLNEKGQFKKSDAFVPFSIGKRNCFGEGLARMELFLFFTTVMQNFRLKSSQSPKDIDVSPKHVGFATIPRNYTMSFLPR

3A4 = 3A4 (Homo sapiens, UniProt P08684)
[1] = tablets
[2] = hypertensive patients

Chain of 3A4 (P08684 whole entry): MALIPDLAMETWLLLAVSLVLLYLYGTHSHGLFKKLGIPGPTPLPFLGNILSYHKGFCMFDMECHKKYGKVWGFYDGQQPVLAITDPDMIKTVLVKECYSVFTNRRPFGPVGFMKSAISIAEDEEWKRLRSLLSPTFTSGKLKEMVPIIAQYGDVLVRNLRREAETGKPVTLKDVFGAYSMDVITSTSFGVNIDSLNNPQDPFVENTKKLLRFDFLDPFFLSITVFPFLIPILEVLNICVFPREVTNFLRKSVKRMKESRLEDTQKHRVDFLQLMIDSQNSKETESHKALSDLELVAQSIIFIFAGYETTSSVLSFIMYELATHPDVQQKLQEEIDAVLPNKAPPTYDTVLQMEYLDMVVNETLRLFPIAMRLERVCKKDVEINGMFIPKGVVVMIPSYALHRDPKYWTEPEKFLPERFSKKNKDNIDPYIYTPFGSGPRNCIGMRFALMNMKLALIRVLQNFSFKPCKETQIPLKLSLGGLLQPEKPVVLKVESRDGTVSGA
Chain of 2D6 (P10635 whole entry): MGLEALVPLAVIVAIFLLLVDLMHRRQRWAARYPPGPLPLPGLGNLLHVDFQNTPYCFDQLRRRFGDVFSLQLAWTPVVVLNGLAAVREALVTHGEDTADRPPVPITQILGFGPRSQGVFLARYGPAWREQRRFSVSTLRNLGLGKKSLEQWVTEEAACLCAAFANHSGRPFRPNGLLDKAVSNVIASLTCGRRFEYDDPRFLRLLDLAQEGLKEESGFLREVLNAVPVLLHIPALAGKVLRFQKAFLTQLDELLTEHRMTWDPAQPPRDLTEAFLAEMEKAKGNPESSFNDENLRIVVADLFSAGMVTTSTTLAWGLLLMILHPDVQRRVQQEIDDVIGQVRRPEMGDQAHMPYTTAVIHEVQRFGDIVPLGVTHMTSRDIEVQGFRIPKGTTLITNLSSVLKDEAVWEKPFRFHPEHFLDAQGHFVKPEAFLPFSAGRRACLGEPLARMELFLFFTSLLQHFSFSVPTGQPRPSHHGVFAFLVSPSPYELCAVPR

In the case of `CCOC(=O)C1=C(COCCN)NC(C)=C(C(=O)OC)C1c1ccccc1Cl` (stereo not shown) [amlodipine], the inhibition (2B6) is listed as “weaker inhibition”, the inhibition (2D6) is listed as “weaker inhibition” and the inhibition (CYP 1A2 isoenzyme) is listed as “moderately inhibited”. The inhibition (2C8/9) was “weaker inhibition”, the “parent compound excreted in the urine” value (in vivo, po) was 10% and the “metabolites excreted in the urine” value (urine, oral) was 60%. The inhibition (2A6) was “weaker inhibition” and the inhibition (3A4) was “weaker inhibition”.

For `CCOC(=O)C1=C(COCCN)NC(C)=C(C(=O)OC)C1c1ccccc1Cl` (stereo not shown) [amlodipine maleate], the “time required for therapeutic response, initially” value [1] is listed as 7 days, the “time required for therapeutic response, peak” value [1] is listed as “about 14 days” and the “circulating drug bound to plasma protein” value [2] is listed as “Approximately 93%”. For the same compound, the “converted to inactive metabolites via hepatic metabolism” value (in vivo, po) was “About 90%” and the “time of peak concentration” value (in vivo, po) was 6 to 12 h.
